Measured values reported in US11773127B2, “Compounds and methods for treating bacterial infections” (Washington University, priority 2017, dated 2023).
Where two headings read alike, the source gives them in different places.

Biological target: T1, FmlHLD (Escherichia coli, UniProt P77588)
T1 construct: 6xHis (C); made in house; host or cells: E. coli C600, periplasm, pTRC99a
Experiment: biochemical
Format: binding, E. coli
Conditions: for inhibitory potency against FmlH, in words: ELISA-based competition assay; for PI100 (percent inhibition): galactoside at 100 μM, 100 µM
Description: Thereafter, wells were incubated with 200 μl blocking buffer (PBS+1% BSA) for 2 hours at 23° C., followed by incubation with 100 μl biotinylated FmlHLD diluted in blocking buffer to 20 μg/ml in the presence or absence of the tested compounds for 1 hr at 23° C. After washing 3× with PBS+0.05% TWEEN-20, 100 μl Streptavidin-HRP conjugate (BD Biosciences; 1:2000 dilution in blocking buffer) was added to each well for 1 hr at 23° C. After a final round of washing, plates were developed with 100 μl Tetramethylbenzidine (TMB, BD Biosciences) substrate, quenched within 1-2 min with 50 μl […], and absorbance measured at 450 nm.
Select top hit compounds and few low-scoring analogs from the virtual screening, as well as synthetic galactosides, were tested in the ELISA-based competition assay for their ability to inhibit binding of FmlHLD to ds-BSM. The ELISA assay was performed using the protocol described in Example 18. […] All compounds were tested at 100 μM; a subset was tested at 10 μM; and the strongest subset was additionally tested at 1 μM. […] Percent inhibition (PI) values are reported as the mean with standard error of the mean for galactosides tested at 100 μM (PI100), 10 μM (PI10), and 1 μM (PI1) in the ELISA-based competition assay. […] The “thio” designation indicates a sulfur linkage between the sugar and the aglycone group, the “phospho” designation indicates a phosphate group attached the C6-hydroxyl group on the sugar, and the “uro” designation indicates galacturonide as the sugar.
The ELISA assay was performed using the protocol described in Example 18. All compounds were tested at 1 μM and a subset was additionally tested at 100 nM. Average percent inhibition (PI) values are reported for compounds tested at 1 μM (PI1) and 100 nM (PI0.1).
Briefly, 1 μg bovine submaxillary mucin (Sigma) in 100 uL PBS were incubated with Immulon 4HBX 96-well plates overnight prior to treatment with 1 mU Arthrobacter ureafaciens sialidase for 1 hour at 37° C. to remove terminal sialic acid sugars. Wells were then blocked with 200 μL PBS+1% BSA for 2 hours at room temperature. Biotinylated FmlH^LD was diluted to 20 μg/mL in blocking buffer and incubated in the presence or absence of compounds serially diluted 2× down eight rows for 1 hour at room temperature. Wells were washed three times with PBS 0.05% TWEEN-20 then incubated with 100 μL of streptavidin-HRP conjugate (BD Biosciences; 1:2,000 dilution in blocking buffer) for one hour. After three additional PBS+0.05% TWEEN washes, plates were developed with 100 μL of tetramethylbenzidine (BD Biosciences) substrate and quenched with 50 μL of 1 M H2SO4. Total bound portion concentration was measured by the absorbance at 450 nm. IC50s were determined using the Graphpad Prism software.
The compounds synthesized herein were tested in the ELISA-based competition assay for their ability to inhibit binding of FmlHLD to ds-BSM. The ELISA assay was performed using the protocol described in Example 18. Compounds were tested at […], 1 μM, and 100 nM. as indicated on the table. […] ND means the corresponding value was not determined for this summary (but may be available elsewhere in the Examples).

[1] = IC50 (μM), Table 5, Gal and GalNAc inhibition of FmlH
[2] = read-out: % Inhibition at [μM] [1], compound at 1 μM, inhibition of FmlHLD binding to ds-BSM
[3] = read-out: PI(1) (average percent inhibition), compound at 1 μM, Table 4
[4] = IC50, inhibition of FmlHLD binding to ds-BSM
[5] = mean with standard error of the mean
[6] = read-out: PI10 (percent inhibition), galactoside at 10 μM, mean with standard error of the mean
[7] = read-out: PI100 (percent inhibition), galactoside at 100 μM, mean with standard error of the mean
[8] = read-out: % Inhibition at [μM] [100], compound at 100 μM, inhibition of FmlHLD binding to ds-BSM
[9] = read-out: PI1 (percent inhibition), galactoside at 1 μM, mean with standard error of the mean
[10] = read-out: % Inhibition at [μM] [10], compound at 10 μM, inhibition of FmlHLD binding to ds-BSM

T1 sequence (P77588 25-182): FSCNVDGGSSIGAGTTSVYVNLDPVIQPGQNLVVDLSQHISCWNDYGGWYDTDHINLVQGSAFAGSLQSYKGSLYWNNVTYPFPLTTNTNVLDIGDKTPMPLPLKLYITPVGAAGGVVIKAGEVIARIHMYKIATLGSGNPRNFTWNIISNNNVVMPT

## COc1ccc(O)cc1-c1ccccc1O[C@@H]1O[C@H](CO)[C@H](O)[C@H](O)[C@H]1NC(C)=O [AM2073, N-((2S,3R,4R,5R,6R)-4,5-dihydroxy-2-((5′-hydroxy-2′-methoxy-[1,1′-biphenyl]-2-yl)oxy)-6-(hydroxymethyl)tetrahydro-2H-pyran-3-yl)acetamide]
  inhibitory potency against FmlH, in words: equal or slightly reduced potency
[1]
  IC50: 0.51 µM
read-out: % Inhibition at [μM] [0.1], compound at 0.1 μM (100 nM), inhibition of FmlHLD binding to ds-BSM
  inhibition at 0.1 µM: 7.1%
[2]
  inhibition at 1 µM: 34.2%
read-out: PI (0.1) (average percent inhibition), compound at 100 nM, Table 4
  inhibition at 0.1 µM: 7.1%
[3]
  inhibition at 1 µM: 34.2%

## Cc1cccc(O[C@@H]2O[C@H](CO)[C@H](O)[C@H](O)[C@H]2NS(C)(=O)=O)c1-c1cccc(NS(C)(=O)=O)c1 [AM2186]
[4]
  IC50: 3.5 µM

## OC[C@H]1O[C@@H](Oc2ccccc2)[C@H](O)[C@@H](O)[C@H]1O [Compound 1β, phenyl β-galactoside]
[5]
  PI100 (percent inhibition): 76.9 ± 0.4%
[6]
  inhibition at 10 µM: 15.5 ± 4.2%
[7]
  inhibition at 100 µM: 77%

## OC[C@H]1O[C@H](Oc2cccc(-c3ccccc3)c2)[C@H](O)[C@@H](O)[C@H]1O [Compound 114af1]
[8]
  inhibition at 100 µM: 45.6%

## OC[C@H]1O[C@@H](SCCc2ccccc2)[C@H](O)[C@@H](O)[C@H]1O [Compound 22β-thio]
[6]
  inhibition at 10 µM: 2.3 ± 2.5%
[7]
  inhibition at 100 µM: 49.8 ± 2.5%

## OC[C@H]1O[C@@H](Oc2ccc(-c3ccccc3)cc2)[C@H](O)[C@@H](O)[C@H]1O [Compound 32β, [1,1′-biphenyl]-4-yl α/β-D-galactopyranoside]
[7]
  inhibition at 100 µM: 30%

## OC[C@H]1O[C@H](Oc2cccc(-c3ccccc3)c2)[C@H](O)[C@@H](O)[C@H]1O [Compound 31α, [1,1′-biphenyl]-3-yl α/β-D-galactopyranoside]
[7]
  inhibition at 100 µM: 45.6 ± 2.5%

## COc1cccc(-c2ccccc2O[C@@H]2O[C@H](CO)[C@H](O)[C@H](O)[C@H]2NC(C)=O)c1 [AM2029, N-((2S,3R,4R,5R,6R)-4,5-dihydroxy-6-(hydroxymethyl)-2-((3′-methoxy-[1,1′-biphenyl]-2-yl)oxy)tetrahydro-2H-pyran-3-yl)acetamide]
  inhibitory potency against FmlH, in words: equal or slightly reduced potency
[1]
  IC50: 2 µM
[2]
  inhibition at 1 µM: 15.5%
[3]
  inhibition at 1 µM: 15.5%

## COC(=O)c1cccc(-c2ccccc2O[C@@H]2O[C@H](CO)[C@H](O)[C@H](O)[C@H]2O)c1 [Compound 30β, 2′-(α/β-D-galactopyranosyloxy)-[1,1′-Biphenyl]-3-carboxylic acid methyl ester]
[5]
  PI100 (percent inhibition): 86.6 ± 0.8%
[9]
  inhibition at 1 µM: 3.7 ± 3.5%
[6]
  inhibition at 10 µM: 22.4 ± 2.6%
[7]
  inhibition at 100 µM: 87%

## Cc1cccc(O[C@@H]2O[C@H](CO)[C@H](O)[C@H](O)[C@H]2NC(=O)C(F)(F)F)c1-c1cccc(NS(C)(=O)=O)c1 [AM2129]
[4]
  IC50: 0.105 µM

## O=[N+]([O-])c1cccc(-c2ccccc2O[C@@H]2O[C@H](CO)[C@H](O)[C@H](O)[C@H]2O)c1 [AM3049]
[4]
  IC50: 15 µM

## CC(=O)N[C@H]1[C@H](Oc2ccccc2-c2cccc(C(N)=O)c2)O[C@H](CO)[C@H](O)[C@@H]1O [AM2033, 2′-(((2S,3R,4R,5R,6R)-3-acetamido-4,5-dihydroxy-6-(hydroxymethyl)tetrahydro-2H-pyran-2-yl)oxy)-[1,1′-biphenyl]-3-carboxamide]
  inhibitory potency against FmlH, in words: equal or slightly reduced potency
[1]
  IC50: 1.65 µM
[2]
  inhibition at 1 µM: 3.52%
[3]
  inhibition at 1 µM: 3.52%

## CC(=O)N[C@H]1[C@H](Oc2ccccc2-c2cc(C(=O)O)cc([N+](=O)[O-])c2)O[C@H](CO)[C@H](O)[C@@H]1O [AM2119]
[4]
  IC50: 1.72 µM

## CC(=O)N[C@H]1[C@H](Oc2ccccc2-c2cccc(F)c2)O[C@H](CO)[C@H](O)[C@@H]1O [AM2028, N-((2S,3R,4R,5R,6R)-2-((3′-fluoro-[1,1′-biphenyl]-2-yl)oxy)-4,5-dihydroxy-6-(hydroxymethyl)tetrahydro-2H-pyran-3-yl)acetamide]
  inhibitory potency against FmlH, in words: equal or slightly reduced potency
[1]
  IC50: 1.48 µM
[2]
  inhibition at 1 µM: 11.8%
[3]
  inhibition at 1 µM: 11.8%

## CC(=O)N[C@@H]1[C@H](Oc2ccccc2-c2cccc(NC(=O)C(F)(F)F)c2)OC(CO)[C@H](O)[C@@H]1O (stereo partly drawn) [Compound 3044, N-(2′-(((2S,3S,4R,5R)-3-acetamido-4,5-dihydroxy-6-(hydroxymethyl)tetrahydro-2H-pyran-2-yl)oxy)-[1,1′-biphenyl]-3-yl)-2,2,2-trifluoroacetamide]
[1]
  IC50: 0.37 µM

## OC[C@H]1O[C@@H](Oc2ccccc2Cl)[C@H](O)[C@@H](O)[C@H]1O [Compound 6β, 2-chlorophenyl β-D-galactopyranoside]
[5]
  PI100 (percent inhibition): 90.5 ± 0.6%
[9]
  inhibition at 1 µM: 8 ± 4%
[6]
  inhibition at 10 µM: 20.7 ± 5.5%
[7]
  inhibition at 100 µM: 90%

## OC[C@H]1O[C@@H](Oc2ccccc2)[C@H](O)[C@@H](O)[C@H]1O [Phenyl Gal, reference compound]
[10]
  inhibition at 10 µM: 15.5%
[8]
  inhibition at 100 µM: 76.9%

## N#Cc1ccc(O[C@@H]2O[C@H](CO)[C@H](O)[C@H](O)[C@H]2O)cc1 [Compound 9β, 4-cyanophenyl β-D-galactopyranoside]
[5]
  PI100 (percent inhibition): 85.7 ± 1.6%
[9]
  inhibition at 1 µM: 9.5 ± 3.7%
[6]
  inhibition at 10 µM: 19.2 ± 4.8%
[7]
  inhibition at 100 µM: 86%

## CC(=O)N[C@H]1[C@H](Oc2cccc(C)c2-c2cccc(NS(=O)(=O)N(C)C)c2)O[C@H](CO)[C@H](O)[C@@H]1O [AM2152]
[4]
  IC50: 0.13 µM

## O=c1c(O[C@@H]2O[C@H](CO)[C@H](O)[C@H](O)[C@H]2O)c(-c2cc(O)c(O)c(O)c2)oc2cc(O)cc(O)c12 [MyrG, reference compound]
[8]
  inhibition at 100 µM: 10.8%

## N#Cc1ccccc1O[C@H]1O[C@H](CO)[C@H](O)[C@H](O)[C@H]1O [Compound 137a]
[8]
  inhibition at 100 µM: 17.8%

## N#Cc1ccccc1O[C@@H]1O[C@H](CO)[C@H](O)[C@H](O)[C@H]1O [Compound 3β, 2-cyanophenyl α/β-D-galactopyranoside]
[5]
  PI100 (percent inhibition): 94.5 ± 0.3%
[9]
  inhibition at 1 µM: 12.1 ± 6.3%
[6]
  inhibition at 10 µM: 30.4 ± 1.8%
[7]
  inhibition at 100 µM: 95%

## CC(=O)N[C@H]1[C@H](Oc2ccccc2[N+](=O)[O-])O[C@H](CO)[C@H](O)[C@@H]1O [ONPG-NAc]
[2]
  inhibition at 1 µM: 22.4%
[10]
  inhibition at 10 µM: 87.2%
[8]
  inhibition at 100 µM: 99.4%

## CC(=O)N[C@H]1[C@H](Oc2cccc3cccnc23)O[C@H](CO)[C@H](O)[C@@H]1O [AM1176]
[2]
  inhibition at 1 µM: 21%
[3]
  inhibition at 1 µM: 21%

## O=C(O)c1cccc(-c2ccccc2O[C@H]2O[C@H](CO)[C@H](O)[C@H](O)[C@H]2O)c1 [Compound 200a]
[8]
  inhibition at 100 µM: 26.2%

## CC(=O)N[C@H]1[C@H](Oc2cccc3ccncc23)O[C@H](CO)[C@H](O)[C@@H]1O (stereo in doubt) [AM1186]
[2]
  inhibition at 1 µM: 23.5%
[3]
  inhibition at 1 µM: 23.5%

## O=[N+]([O-])c1ccccc1O[C@@H]1O[C@H](CO)[C@H](O)[C@H](O)[C@H]1O [ONPG, o-nitrophenyl β-galactoside, reference compound]
[2]
  inhibition at 1 µM: 14.2%
[10]
  inhibition at 10 µM: 31.1%
[8]
  inhibition at 100 µM: 93%
Soluble compound at 100 μM (0.1 mM)
  inhibition of FmlHLD binding to ds-BSM, in words: more effectively than Gal, GalNAc, or TF

## OC[C@H]1O[C@H](Oc2ccc(-c3ccccc3)cc2)[C@H](O)[C@@H](O)[C@H]1O [Compound 32α, [1,1′-biphenyl]-4-yl α/β-D-galactopyranoside]
[6]
  inhibition at 10 µM: 22.6 ± 3.9%
[7]
  inhibition at 100 µM: 86.5 ± 1.7%
